Data on 20 molecules can be found in US10689378B2, “Triazolopyridine compounds and uses thereof” (Novartis AG, priority 2016, dated 2020).

One experiment deals with T1, EED (1-441)-His protein (Homo sapiens, UniProt O75530).
T1 construct: 30 nM EED (1-441)-His protein
Description: EED-H3K27Me3 peptide competition binding assay by AlphaScreen. The settings on record: EED-H3K27Me3 peptide competition, AlphaScreen; read-out: (a) IC50 EED Alphascreen binding Qualified. Summed up: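 Serially diluted compound (12 points, 3-fold) incubated 20 min with 30 nM EED(1-441)-His and 15 nM biotin-H3K27Me3(19-33) peptide in 25 mM HEPES pH 8, 0.02% Tween-20, 0.5% BSA. Ni-chelate acceptor/streptavidin donor beads (10 μg/mL each) added, 1 h rt dark; 615 nm emission normalized to controls, dose-response fit for IC50.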

In experiment [1] the target is wild type PRC2 (wtPRC2) complex (Homo sapiens, UniProt O75530). The experiment can be described thus: EED LC-MS assay (SAH production by PRC2). In kind it is biochemical. The settings on record: PRC2 LC-MS assay; read-out: (b) IC50 EED LC-MS Qualified. Summed up: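 Pentameric PRC2 (EZH2, SUZ12, EED, Rbap48, AEBP), 12 nM final, preincubated 20 min with compound and SAM, then 1.5 μM biotinylated H3K27me0 peptide, 1 μM SAM, pH 8.0, 120 min at rt. SAH quantified by LC-MS/MS with d4-SAH; control-normalized activity fitted for IC50.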
Chain of wild type PRC2 (wtPRC2) complex (O75530 whole entry): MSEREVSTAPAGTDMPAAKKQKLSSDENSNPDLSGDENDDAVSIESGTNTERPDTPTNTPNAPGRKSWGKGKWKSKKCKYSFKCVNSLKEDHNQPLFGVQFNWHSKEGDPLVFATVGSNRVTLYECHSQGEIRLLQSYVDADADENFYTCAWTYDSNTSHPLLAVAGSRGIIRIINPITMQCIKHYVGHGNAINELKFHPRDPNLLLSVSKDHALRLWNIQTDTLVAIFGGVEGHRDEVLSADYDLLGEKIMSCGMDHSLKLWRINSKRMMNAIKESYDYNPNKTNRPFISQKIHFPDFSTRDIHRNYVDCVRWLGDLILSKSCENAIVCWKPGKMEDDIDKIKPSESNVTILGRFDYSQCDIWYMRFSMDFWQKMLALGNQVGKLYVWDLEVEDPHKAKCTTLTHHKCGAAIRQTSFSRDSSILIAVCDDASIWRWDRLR
Chain of wild type PRC2 (wtPRC2) complex (Q15910 whole entry partner): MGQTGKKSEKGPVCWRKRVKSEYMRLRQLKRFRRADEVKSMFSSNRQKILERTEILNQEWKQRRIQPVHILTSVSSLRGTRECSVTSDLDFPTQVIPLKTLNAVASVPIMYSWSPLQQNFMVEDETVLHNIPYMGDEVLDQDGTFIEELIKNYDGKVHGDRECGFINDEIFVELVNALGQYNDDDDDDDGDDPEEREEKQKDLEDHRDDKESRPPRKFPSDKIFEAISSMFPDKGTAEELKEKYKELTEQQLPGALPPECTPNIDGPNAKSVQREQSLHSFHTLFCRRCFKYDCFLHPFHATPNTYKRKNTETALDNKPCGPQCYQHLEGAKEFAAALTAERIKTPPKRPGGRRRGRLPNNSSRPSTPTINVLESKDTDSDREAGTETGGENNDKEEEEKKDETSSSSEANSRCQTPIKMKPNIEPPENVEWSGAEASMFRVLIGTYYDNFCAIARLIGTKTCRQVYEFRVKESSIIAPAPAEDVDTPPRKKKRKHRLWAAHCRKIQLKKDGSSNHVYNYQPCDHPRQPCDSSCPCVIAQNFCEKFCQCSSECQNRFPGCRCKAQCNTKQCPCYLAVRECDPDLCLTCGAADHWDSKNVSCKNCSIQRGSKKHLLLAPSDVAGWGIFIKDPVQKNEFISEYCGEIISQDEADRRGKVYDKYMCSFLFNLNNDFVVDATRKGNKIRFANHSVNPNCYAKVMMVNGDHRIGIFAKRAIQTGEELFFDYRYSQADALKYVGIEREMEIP
Chain of wild type PRC2 (wtPRC2) complex (Q15022 whole entry partner): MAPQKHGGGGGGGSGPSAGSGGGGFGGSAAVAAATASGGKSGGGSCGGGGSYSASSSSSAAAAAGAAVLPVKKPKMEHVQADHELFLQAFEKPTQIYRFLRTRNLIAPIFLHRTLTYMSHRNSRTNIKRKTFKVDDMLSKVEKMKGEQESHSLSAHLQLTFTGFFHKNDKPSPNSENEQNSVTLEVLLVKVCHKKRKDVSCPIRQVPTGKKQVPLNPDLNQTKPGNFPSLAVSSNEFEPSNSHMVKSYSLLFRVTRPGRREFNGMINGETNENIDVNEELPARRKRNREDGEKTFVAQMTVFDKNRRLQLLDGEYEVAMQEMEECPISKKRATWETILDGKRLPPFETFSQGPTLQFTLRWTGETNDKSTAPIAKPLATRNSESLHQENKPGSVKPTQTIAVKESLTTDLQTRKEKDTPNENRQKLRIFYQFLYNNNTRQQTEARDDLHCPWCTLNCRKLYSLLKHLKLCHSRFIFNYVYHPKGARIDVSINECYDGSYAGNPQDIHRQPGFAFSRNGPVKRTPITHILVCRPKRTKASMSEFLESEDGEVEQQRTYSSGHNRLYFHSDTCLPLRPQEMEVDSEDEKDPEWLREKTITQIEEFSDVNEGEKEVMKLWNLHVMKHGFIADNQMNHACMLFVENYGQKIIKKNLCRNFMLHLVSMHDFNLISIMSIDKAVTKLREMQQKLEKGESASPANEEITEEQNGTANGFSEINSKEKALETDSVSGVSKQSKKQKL
Chain of wild type PRC2 (wtPRC2) complex (Q09028 whole entry partner): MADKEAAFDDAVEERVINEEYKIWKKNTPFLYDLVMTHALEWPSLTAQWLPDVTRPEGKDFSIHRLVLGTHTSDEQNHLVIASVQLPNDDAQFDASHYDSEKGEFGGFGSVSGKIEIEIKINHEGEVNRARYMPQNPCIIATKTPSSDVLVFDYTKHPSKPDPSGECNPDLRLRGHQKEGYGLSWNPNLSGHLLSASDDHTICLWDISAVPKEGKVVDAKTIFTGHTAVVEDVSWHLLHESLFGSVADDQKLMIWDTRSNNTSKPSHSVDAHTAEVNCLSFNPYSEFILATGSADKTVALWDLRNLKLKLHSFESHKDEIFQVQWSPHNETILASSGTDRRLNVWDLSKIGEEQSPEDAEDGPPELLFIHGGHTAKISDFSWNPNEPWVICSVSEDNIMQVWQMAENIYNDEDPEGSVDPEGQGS
Chain of wild type PRC2 (wtPRC2) complex (Q6ZN18 whole entry partner): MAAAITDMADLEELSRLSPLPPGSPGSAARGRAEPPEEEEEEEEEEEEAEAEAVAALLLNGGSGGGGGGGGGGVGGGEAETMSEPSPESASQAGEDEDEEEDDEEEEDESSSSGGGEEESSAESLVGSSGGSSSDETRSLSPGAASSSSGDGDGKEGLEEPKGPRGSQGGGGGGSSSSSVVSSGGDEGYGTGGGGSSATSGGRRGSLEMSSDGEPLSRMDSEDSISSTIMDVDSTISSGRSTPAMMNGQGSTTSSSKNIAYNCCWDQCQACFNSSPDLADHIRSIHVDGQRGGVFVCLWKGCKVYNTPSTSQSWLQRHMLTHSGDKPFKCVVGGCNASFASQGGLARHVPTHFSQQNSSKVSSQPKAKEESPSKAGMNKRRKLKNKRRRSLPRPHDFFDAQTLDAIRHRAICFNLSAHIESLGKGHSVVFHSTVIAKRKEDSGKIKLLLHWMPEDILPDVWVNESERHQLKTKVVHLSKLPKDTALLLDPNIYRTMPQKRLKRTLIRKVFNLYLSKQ

The test system of experiment [2] is H3K27 methylation in G401 cell. Description: ELISA (H3K27 methylation) assay in G401 cells. In kind it is cell-based, human. The settings on record: Homo sapiens, G-401, H3K27 methylation ELISA, read-out: (c) IC50 ELISA Qualified. Summed up: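 G401 cells treated 48 h with 3-fold dilutions (8 or 12 points, top 20 μM). Acid-extracted histones probed by ELISA for H3K27me3 or H3K27me2 with ECL readout, normalized to total H3. Percent inhibition versus DMSO fitted to dose-response curve for IC50.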
On the technique in general: ELISA stands for enzyme-linked immunosorbent assay.

T1 sequence (O75530 whole entry): as the sequence (O75530 whole entry) above

For orientation: IC50 means the concentration at which inhibition is half-maximal. On to `COc1cccc(F)c1CNc1ccc(-c2ccc(N(C)C)nc2)c2nncn12` [Example 174, 8-(6-(dimethylamino)pyridin-3-yl)-N-(2-fluoro-6-methoxybenzyl)-[1,2,4]triazolo[4,3-a] pyridin-5-amine], for which the IC50 came out at 47.2 nM on EED (1-441)-His protein, 136 nM in experiment [1] and 76.7 nM in experiment [2].
Regarding `COc1cccc(F)c1CNc1ccc(-c2ccnc(CCO)c2)c2nncn12` [Example 175, 2-(4-(5-((2-fluoro-6-methoxybenzyl)amino)-[1,2,4]triazolo[4,3-a]pyridin-8-yl)pyridin-2-yl)ethanol], the figures for the IC50 (on EED (1-441)-His protein; in experiment [1]; in experiment [2]) were 35.9 nM, 148 nM and 23.9 nM, respectively.
With `COc1cccc(F)c1CNc1ccc(-c2cccnc2OC)c2nncn12` [Example 176, N-(2-fluoro-6-methoxybenzyl)-8-(2-methoxypyridin-3-yl)-[1,2,4]triazolo [4,3-a]pyridin-5-amine], the IC50 at EED (1-441)-His protein was 32.9 nM; in experiment [1], 176 nM; in experiment [2], 58.6 nM.
For `COc1cccc(F)c1CNc1ccc(-c2ccc(S(C)(=O)=O)cc2F)c2nncn12` [Example 177, 8-(2-fluoro-4-(methylsulfonyl)phenyl)-N-(2-fluoro-6-methoxybenzyl)-[1,2,4]triazolo[4,3-a]pyridin-5-amine] the same measures were 15.8 nM, 32.3 nM and 12.3 nM.
`COc1cccc(F)c1CNc1ccc(-c2ccc(C(=O)N(C)C)cc2F)c2nncn12` [Example 178, 3-fluoro-4-(5-((2-fluoro-6-methoxybenzyl)amino)-[1,2,4]triazolo[4,3-a]pyridin-8-yl)-N,N-dimethyl benzamide]: the IC50 on EED (1-441)-His protein was determined as 6.5 nM; in experiment [1], 18.8 nM; in experiment [2], 6.5 nM.
Consider `COc1cccc(F)c1CNc1ccc(-c2ccc(S(=O)(=O)C3CCNCC3)nc2)c2nncn12` [Example 179, N-(2-fluoro-6-methoxybenzyl)-8-(6-(piperidin-4-ylsulfonyl)pyridin-3-yl)-[1,2,4]triazolo[4,3-a]pyridin-5-amine], for which the figures for the IC50 (on EED (1-441)-His protein; in experiment [1]; in experiment [2]) were 24.8 nM, 174 nM and 13.2 nM, respectively.
For `COc1ccccc1CNc1ccc(-c2ccc(N3CCN(C)CC3C)nc2)c2nncn12` (stereo not drawn) [Example 180, 8-(6-(2,4-dimethylpiperazin-1-yl)pyridin-3-yl)-N-(2-methoxybenzyl)-[1,2,4] triazolo[4,3-a]pyridin-5-amine] the same measures were 55.7 nM, 171 nM and 57.9 nM.
In the case of `COc1cccc(F)c1CNc1ccc(-c2cnccc2F)c2nncn12` [Example 181, N-(2-fluoro-6-methoxybenzyl)-8-(4-fluoropyridin-3-yl)-[1,2,4]triazolo[4,3-a] pyridin-5-amine], the results for the IC50 (at EED (1-441)-His protein; in experiment [1]; in experiment [2]) were 11.2 nM, 44.2 nM and 11.4 nM, respectively.
For the molecule `CNC(=O)c1cncc(-c2ccc(NCc3c(F)cccc3OC)n3cnnc23)c1` [Example 182, 5-(5-((2-fluoro-6-methoxybenzyl)amino)-[1,2,4]triazolo[4,3-a]pyridin-8-yl)-N-methylnicotinamide], the IC50 stood at 20.4 nM on EED (1-441)-His protein, 520 nM in experiment [1] and 16.5 nM in experiment [2].
As to `COc1cccc(F)c1CNc1ccc(-c2ccc(CCO)nc2)c2nncn12` [Example 183, 2-(5-(5-((2-fluoro-6-methoxybenzyl)amino)-[1,2,4]triazolo[4,3-a]pyridin-8-yl)pyridin-2-yl)ethanol], the IC50 on EED (1-441)-His protein worked out at 19.9 nM; in experiment [1], 41.6 nM; in experiment [2] it was 17.3 nM.
Turning to `COc1cccc(F)c1CNc1ccc(-c2cnc(S(C)(=O)=O)cc2C)c2nncn12` [Example 184, N-(2-fluoro-6-methoxybenzyl)-8-(4-methyl-6-(methylsulfonyl)pyridin-3-yl)-[1,2,4]triazolo[4,3-a] pyridin-5-amine], the IC50 on EED (1-441)-His protein is 46.4 nM; in experiment [1] it was 77.7 nM; in experiment [2] it was 25 nM.
For `COc1cccc(F)c1CNc1ccc(-c2ccc(S(C)(=O)=O)nc2C)c2nncn12` [Example 185, N-(2-fluoro-6-methoxybenzyl)-8-(2-methyl-6-(methylsulfonyl)pyridin-3-yl)-[1,2,4]triazolo[4,3-a] pyridin-5-amine] the same measures were 7.9 nM, 18.5 nM and 3.6 nM.
`COc1cccc(F)c1CNc1ccc(-c2cn(C)nc2C)c2nncn12` [Example 186, 8-(1,3-dimethyl-1H-pyrazol-4-yl)-N-(2-fluoro-6-methoxybenzyl)-[1,2,4]triazolo[4,3-a] pyridin-5-amine]: the IC50 worked out at 65.9 nM on EED (1-441)-His protein, 14 nM in experiment [1] and 40.9 nM in experiment [2].
For `COc1cccc(F)c1CNc1ccc(-c2c(C)n[nH]c2C)c2nncn12` [Example 187, 8-(3,5-dimethyl-1H-pyrazol-4-yl)-N-(2-fluoro-6-methoxybenzyl)-[1,2,4]triazolo[4,3-a] pyridin-5-amine] the same measures were 41.6 nM, 172 nM and 52.8 nM.
Turning to `COc1cccc(F)c1CNc1ccc(-c2cnn(C)c2C)c2nncn12` [Example 188, 8-(1,5-dimethyl-1H-pyrazol-4-yl)-N-(2-fluoro-6-methoxybenzyl)-[1,2,4]triazolo[4,3-a] pyridin-5-amine], the IC50 at EED (1-441)-His protein worked out at 55.2 nM; in experiment [1], 93.1 nM; in experiment [2], 34.8 nM.
The matching figures for `COc1cccc(F)c1CNc1ccc(-c2c[nH]nc2C)c2nncn12` [Example 189, N-(2-fluoro-6-methoxybenzyl)-8-(3-methyl-1H-pyrazol-4-yl)-[1,2,4] triazolo[4,3-a]pyridin-5-amine]: 53.6 nM, 71.1 nM and 56.4 nM.
The matching figures for `COc1ccncc1-c1ccc(NCc2c(F)cccc2OC)n2cnnc12` [Example 190, N-(2-fluoro-6-methoxybenzyl)-8-(4-methoxypyridin-3-yl)-[1,2,4] triazolo[4,3-a]pyridin-5-amine]: 41.5 nM, 240 nM and 13.1 nM.
Turning to `COc1cccc(F)c1CNc1ccc(-c2ccccc2Cl)c2nncn12` [Example 192, 8-(2-chlorophenyl)-N-(2-fluoro-6-methoxybenzyl)-[1,2,4]triazolo[4,3-a]pyridin-5-amine], the IC50 on EED (1-441)-His protein was found to be 88.8 nM; in experiment [1], 348 nM; in experiment [2], 118 nM.
For `COc1cccc(F)c1CNc1ccc(-c2ccc(C(=O)N(C)C)nc2)c2nncn12` [Example 194, 5-(5-((2-fluoro-6-methoxybenzyl)amino)-[1,2,4]triazolo[4,3-a]pyridin-8-yl)-N,N-dimethylpicolinamide], the values for the IC50 (at EED (1-441)-His protein; in experiment [1]; in experiment [2]) were 16.5 nM, 49.4 nM and 6.3 nM, respectively.
For `COc1cccc(F)c1CNc1ccc(-c2cncc(C(=O)N(C)C)c2)c2nncn12` [Example 195, 5-(5-((2-fluoro-6-methoxybenzyl)amino)-[1,2,4]triazolo[4,3-a]pyridin-8-yl)-N,N-dimethylnicotinamide] the same measures were 17.6 nM, 61.3 nM and 8 nM.
